Experimental data: patent US20170027940A1, “METHOD FOR TREATING CANCER” (STICHTING HET NEDERLANDS KANKER INSTITUUT, priority 2014, published 2017)
Each block holds one compound with its values, some of them ahead of it.

Assays:
[1] = tested on: MITF^endo^_^lo and MITF^endo^_^hi BRAF mutant melanoma cells; assay: cell proliferation assay and PARP cleavage; format: cell-based, human; conditions: 5 μM, six days; MITF^endo^_^lo versus MITF^endo^_^hi cells
Protocol: FIG. 7: BRAFV600E mutant melanoma cells were plated in low density and treated with 5 μM PLX4270 for 6 days or left untreated and stained with crystal violet (left panel).
Cell line sources: Melanoma cell lines and HEK293T were cultured in DMEM/9% FBS (Sigma), 2 mM glutamine, 100 U/mL penicillin and 0.1 mg/mL streptomycin (all Gibco) under standard conditions. […] For dose response curve and colony formation assay cells were plated in a line-specific manner. Equal concentration of inhibitors was added one day after set up. For short-term viability assay (dose response curve) cells were plated in a 96-well format and drugs diluted with the HP D300 Digital Dispenser (Tecan). After three to five days incubation old medium was replaced by a dilution of CellTiter Blue reagent or CellTiter-Glo Luminescent Cell Viability Assay (Promega, Madison, Wiss.) in medium. Two hours later luminescence was measured by the infinite M200 microplate reader (Tecan, Giessen, Germany). Long-term viability assays were performed in 6-well or 12-well format. Inhibitors solutions were replaced every two to three days and plates stained with crystal violet after six to nine days of treatment (as indicated). For immunoblot analysis cells were treated on 10 cm dishes and snap-frozen after harvesting.
(§2) We then determined the spectrum of drug sensitivity among the MITF^endo^_^lo and MITF^endo^_^hi cells.

ERK phosphorylation = assay: immunoblot of ERK phosphorylation; format: cell-based, human; conditions: 5 μM; irrespective of MITF status
Protocol: For immunoblot analysis cells were treated on 10 cm dishes and snap-frozen after harvesting.
Cells were lysed in RIPA buffer and protein concentration measured with Bio-Rad protein assay. Immunoblots were performed according to standard protocols on 4 to 12% bis-Tris precast or 3-8% tris-acetate gels (NuPage). […] MAP kinase p44/42 thy202/Tyr204 (9106) and PDGFRbeta (31695) from Cell Signaling.

[2] = tested on: receptor tyrosine kinases (RTKs); assay: phospho-RTK array; format: cell-based, human; conditions: 5 μM, two days
Protocol: Phospho-RTK assay was performed using the human Phospho-RTK Array from RD Systems (Minneapolis, USA). All steps were performed according to the manufactures protocol.
Encouraged by these findings, we compared the phosphorylation status of RTKs in one MITF^endo^_^lo and one MITF^endo^_^lo cell line.

MITF = MITF expression during acquisition of resistance; format: cell-based, human; conditions: short-term exposure, M229 and M238 MITF^acq^_^loss melanoma cell lines
Protocol: RNA was isolated using Trizol (Ambion), following standard protocol. Reverse transcription was performed using a kit from Invitrogen. Primers were designed using Primer Express software. QRT-PCR was performed with SYBR green master mix (Applied Biosystems) on a StepOnePlus Real-Time PCR system (Applied Biosystems, Warrington, UK). RNA levels were normalized against beta-actin or RPL13. Following primers were used: To study the dynamics of MITF downregulation as a function of the acquisition of a resistant phenotype, two independent MITF^acq^_^loss melanoma cell lines (M229 and […]; {Shi:2014fm}) were permanently exposed to 1 μM vemurafenib and monitored in time.

[3] = tested on: AXL-expressing PLX4270-resistant melanoma cells; assay: long-term viability assay, crystal violet staining; format: cell-based, human; conditions: 0.3 μM AXL inhibitor, nine days, in two out of three resistant cell lines
Protocol: FIG. 12: AXL-expressing PLX4270-resistant melanoma cells were exposed to 0.3 μM AXL inhibitor for nine days and the remaining cells stained with crystal violet.
(§1) Cell line sources: Melanoma cell lines and HEK293T were cultured in DMEM/9% FBS (Sigma), 2 mM glutamine, 100 U/mL penicillin and 0.1 mg/mL streptomycin (all Gibco) under standard conditions. HEK293T cells were used for virus production for MITF-overexpression and shRNAs. Briefly HEK293T cells were transfected with the plasmid of interest and the helper plasmids (pMDLglpRRE, pHCMV-G, and pRSVrev). Viral supernatant was either fresh frozen or subsequently used for infection. Infected melanoma cells were positively selected with puromycin (Sigma). For dose response curve and colony formation assay cells were plated in a line-specific manner. Equal concentration of inhibitors was added one day after set up. For short-term viability assay (dose response curve) cells were plated in a 96-well format and drugs diluted with the HP D300 Digital Dispenser (Tecan). […] Two hours later luminescence was measured by the infinite M200 microplate reader (Tecan, Giessen, Germany). […]
Next, we determined the expression pattern of these RTKs in acquired resistance, particularly in PLX4720-sensitive cells and their resistant counterparts. […]

[4] = tested on: PLX4720-resistant MITF^acq^_^gain cells; assay: long-term viability assay, crystal violet staining; format: cell-based, human; conditions: crystal violet after 6 days
Protocol: FIG. 5: Loss of MITF confers cross-resistance and increases invasiveness of resistant cells. Two PLX4270-resistant cells lines (Me1888 and SkMe128) and their treatment-naïve counterparts were treated with either ERKi, MEKi, the BRAFinhibitor Dabrafenib or a combination of the latter and stained with crystal violet after 6 days of treatment.
as §1

[5] = tested on: MITF^endo^_^hi and MITF^endo^_^lo cell lines; assay: dose response curve (short-term viability assay); format: cell-based, human; conditions: four MITF^endo^_^lo versus four MITF^endo^_^hi cell lines
Protocol: Cell line sources: Melanoma cell lines and HEK293T were cultured in DMEM/9% FBS (Sigma), 2 mM glutamine, 100 U/mL penicillin and 0.1 mg/mL streptomycin (all Gibco) under standard conditions. […] For dose response curve and colony formation assay cells were plated in a line-specific manner. Equal concentration of inhibitors was added one day after set up. For short-term viability assay (dose response curve) cells were plated in a 96-well format and drugs diluted with the HP D300 Digital Dispenser (Tecan). After three to five days incubation old medium was replaced by a dilution of CellTiter Blue reagent or CellTiter-Glo Luminescent Cell Viability Assay (Promega, Madison, Wiss.) in medium. Two hours later luminescence was measured by the infinite M200 microplate reader (Tecan, Giessen, Germany).
as §2

[6] = tested on: BRAFV600E mutant melanoma cell line (04.07); assay: sensitivity of screening cell line to ERK inhibitor; format: cell-based, human; conditions: not all cells are killed even at high concentration
Protocol: The insertional mutagenesis screen was performed as described previously (Lu et al. Proc Natl Acad Sci U S A. (2009) 22;106(38):16339-44). Briefly, an intermediate sensitive melanoma cell line of low passage (Me104.07) was infected separately with the three different VBIM constructs (SD1-3). Two days after infection cells were exposed to 1 μM […] for three weeks till single colonies had formed. These were picked and separately cultured. For identification of insertions Splinkerette-PCR was used according to the published protocol and Sanger sequencing applied on amplified products.
To identify proteins conferring resistance to MAPK pathway inhibition by the recently available ERK inhibitor 5CH772984, we performed a lentiviral insertional mutagenesis screen using the VBIM system. Carrying a GFP-sequence and a strong CMV promoter, the virus integrates in the genome, resulting in an activation of downstream sequences that leads to overexpression of a FLAG-tagged protein. Due to […] excision the insertion can be excised by addition of 4-Hydroxytamoxifen (4-OHT). […] We infected this cell line with the three versions of the insertional mutagenesis vector (SD1-3). After three weeks of culturing in the presence of 1 μM SCH772984, we were able to pick drug-resistant clones and individually expanded them. […]

[7] = tested on: BRAF and BRAF/MEK inhibitor-resistant cells; conditions: Morris et al. 2013; cited from earlier work

activation of RTKs ([2]; MITF^endo^_^hi cells): only a minor activation
activation of RTKs ([2]; MITF^endo^_^lo cells): further increased
Compound: CCCS(=O)(=O)Nc1ccc(F)c(C(=O)c2c[nH]c3ncc(Cl)cc23)c1F [PLX4720]
survival of cells upon exposure [1]: clear survival benefit
ERK phosphorylation (ERK phosphorylation): diminished
MITF expression (MITF): sharply dropped

Compound: Nc1nc(Nc2ccc3c(c2)CCC(N2CCCC2)CC3)nn1-c1cc2c(nn1)-c1ccccc1CCC2 (stereo not shown) [R428]
proliferation/viability upon drug treatment [3]: strong decrease in proliferation/viability

Compound: CC(C)(C)c1nc(-c2cccc(NS(=O)(=O)c3c(F)cccc3F)c2F)c(-c2ccnc(N)n2)s1 [Dabrafenib]
sensitivity in long-term experiment [4]: resistant

Compound: CC(=O)Nc1cccc(-n2c(=O)n(C3CC3)c(=O)c3c(Nc4ccc(I)cc4F)n(C)c(=O)c(C)c32)c1 [MEKi]
increase in resistance, as measured from the IC50 values [5]: up to 1000 fold

Compound: O=C(Nc1ccc2[nH]nc(-c3ccncc3)c2c1)[C@@H]1CCN(CC(=O)N2CCN(c3ccc(-c4ncccn4)cc3)CC2)C1 [SCH772984]
sensitivity to the inhibitor [6]: intermediately sensitive
proliferation [7]: effectively block proliferation
